In US20110059910A1, “Novel aromatic fluoroglycoside derivatives, pharmaceuticals comprising said compounds and the use thereof” (SANOFI-AVENTIS, priority 2008, published 2011):

Molecular target: T1, human sodium-dependent glucose transporter 2 (SGLT2, SLC5A2) (Homo sapiens, UniProt P31639)
T1 construct: Bases 21 to 2039 correspond to the complete coding region of human SGLT2; expressed in transfected cells
T1 sequence (P31639 1-672): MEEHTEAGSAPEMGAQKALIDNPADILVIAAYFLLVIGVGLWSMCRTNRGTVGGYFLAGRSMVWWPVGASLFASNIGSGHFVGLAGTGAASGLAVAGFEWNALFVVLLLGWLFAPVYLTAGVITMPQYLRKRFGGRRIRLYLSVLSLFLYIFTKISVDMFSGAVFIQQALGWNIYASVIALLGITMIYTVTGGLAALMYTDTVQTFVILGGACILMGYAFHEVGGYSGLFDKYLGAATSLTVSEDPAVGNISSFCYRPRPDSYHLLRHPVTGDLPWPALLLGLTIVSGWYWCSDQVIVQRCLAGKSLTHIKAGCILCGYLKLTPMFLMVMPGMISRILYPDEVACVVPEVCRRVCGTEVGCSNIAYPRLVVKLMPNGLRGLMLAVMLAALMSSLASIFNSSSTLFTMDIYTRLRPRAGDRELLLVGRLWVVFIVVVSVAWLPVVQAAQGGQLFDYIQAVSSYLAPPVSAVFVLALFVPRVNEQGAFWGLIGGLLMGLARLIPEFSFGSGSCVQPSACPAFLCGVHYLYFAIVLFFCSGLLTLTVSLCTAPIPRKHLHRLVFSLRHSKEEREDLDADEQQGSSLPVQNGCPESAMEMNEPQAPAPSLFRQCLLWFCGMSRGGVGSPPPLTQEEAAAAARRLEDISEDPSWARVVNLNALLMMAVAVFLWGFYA
Experiment: Inhibition of the transport activity of human SGLT2 in vitro (α-MDG uptake in CHO-TRex-hSGLT2 cells)
Format: cell-based
Conditions: 50 μM α-MDG, 120 min at 37° C.
Excerpt: Inhibition of the Transport Activity of the Human Sodium-Dependent Glucose Transporter 2 (SGLT2, SLC5A2) In Vitro
1. Cloning of an Expression Vector for Human SGLT2
The cDNA for human SGLT2 was introduced into the pcDNA4/TO vector (Invitrogen) by means of standard methods of molecular biology as described in Sambrook et al. (Molecular Cloning, A Laboratory Manual, Second Edition). […] Bases 21 to 2039 correspond to the complete coding region of human SGLT2.
2. Production of a Recombinant Cell Line with Inducible Expression of Human SGLT2
The expression vector for human SGLT2 was introduced into CHO-TREx cells (Invitrogen) by means of FuGene6 lipofection (Roche). To select single cell clones, 600 μg/ml of Zeocin (Invitrogen) was added to the cell culture medium (nutrient mixture F-12 (Ham), (Invitrogen) supplemented with 10% fetal calf serum (FBS Gold, PAA), 10 μg/ml Blasticidin S(CN Biosciences), 100 units/ml penicillin, 100 units/ml streptomycin). The functionality of the single cell clones resulting from the selection was tested via their uptake activity for radiolabeled methyl-α-D-glucopyranoside. That cell clone with the highest uptake activity for methyl-α-D-glucopyranoside, referred to hereinafter as CHO-TRex-hSGLT2, was selected for the further experiments and cultured further in the presence of 600 μg/ml Zeocin.
3. Measurement of the Inhibiting Action of Test Substances on the Uptake of methyl-α-D-glucopyranoside (α-MDG)
CHO-TRex-hSGLT2 cells were seeded in cell culture medium in a concentration of 50 000 cells per well in Cytostar-T scintillating 96-well plates (Amersham Biosciences) and cultivated for 24 h. The expression of the recombinant human SGLT2 was induced by adding 1 μg/ml tetrazykline for a further 24 h. For α-MDG uptake experiments, the cells were washed with PBS and then starved at 37° C. in starvation medium (PBS supplemented with 10% fetal calf serum) for 1 hour. After a further washing step with transport assay buffer (140 mM sodium chloride, 2 mm potassium chloride, 1 mm magnesium chloride, 1 mm calcium chloride, 10 mm HEPES/Tris, pH 7.5), the cells were incubated at room temperature either in the absence or presence of test substances of different concentration for 15 min. The test substances were diluted correspondingly in transport assay buffer proceeding from a 10 mm stock solution in dimethyl sulfoxide (40 μl/well). The assay was subsequently started by adding 10 μl/well of a mixture of radiolabeled methyl-α-D-[U-^14C]glucopyranoside (Amersham) and unlabeled methyl-α-D-glucopyranoside (Acros). The final concentration of methyl-α-D-glucopyranoside in the assay was 50 μM. After an incubation time of 120 min at 37° C., the reaction was stopped by adding 50 μl/well of 10 mM methyl-α-D-glucopyranoside in transport assay buffer (4° C.), and the radioactivity taken up into the cells was determined in a MicroBeta Scintillation Microplate Reader (Wallac).
The half-maximum inhibiting action of the test substances (IC50 value) was determined as follows: • 1. Determination of the value for 0% inhibition. This is the measurement in the absence of substance, measured in sodium-containing transport assay buffer. • 2. Determination of the value for 100% inhibition. This is the measurement in the absence of substance, measured in sodium-free transport assay buffer (140 mM choline chloride, 2 mM potassium chloride, 1 mM magnesium chloride, 1 mM calcium chloride, 10 mM HEPES/Tris, pH7.5). • 3. Calculation of the percentage inhibition values of those measurements which were carried out in the presence of different concentrations of test substance. From this, it was then possible to determine that concentration of the test substance which reduces the uptake of the methyl-α-D-glucopyranoside by 50% (IC50 value).

Row | Structure (SMILES) | IC50 [nM]
1 | CCc1ccc(Cc2cc(C3OC(CO)C(F)(F)C(O)C3O)ccc2C(F)(F)F)cc1 (centres unmarked) [Example 54] | 257
2 | OCC1OC(c2ccc(Cl)c(Cc3ccc(OCC4CC4)cc3)c2)C(O)C(O)C1(F)F (centres unmarked) [Example 32] | 46
3 | CCOC(=O)OCC1OC(c2ccc(Cl)c(Cc3ccc(OC)cc3)c2)C(O)C(O)C1F (centres unmarked) [Example 20] | 1060
4 | CCc1ccc(Cc2cccc(C3OC(CO)C(F)C(O)C3O)c2)cc1 (centres unmarked) [Example 4] | 153
5 | CCOC(=O)OCC1OC(c2ccc(OC)c(Cc3ccc(OC)cc3)c2)C(O)C(O)C1(F)F (centres unmarked) [Example 14] | 1600

Further molecules by falling IC50, results first:

Row | IC50 [nM] | Structure (SMILES)
6 | 3000 | CCOC(=O)OC[C@H]1O[C@@H](c2ccc(Cl)c(Cc3ccc(Cl)cc3)c2)[C@H](O)[C@@H](O)C1(F)F [Example 45]
7 | 165 | CCOC(=O)OC1C(O)C(c2ccc(Cl)c(Cc3ccc(OCC)cc3)c2)OC(CO)C1(F)F (centres unmarked) [Example 19]
8 | 107 | CCc1ccc(Cc2cc(C3OC(CO)C(F)C(O)C3O)ccc2C(F)(F)F)cc1 (centres unmarked) [Example 52]
